Structures are written as SMILES. pKi: −log10 of the molar value. Where two headings read alike, the source gives them in different places.

The target in one experiment is PI3-Kα (Mus musculus (Mouse), UniProt P42337). The experiment in a line: PI3-Kα biochemical assay (in vitro kinase assay, fluorescence polarization).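 On all read-outs here: Insect-cell-expressed mouse p110/p85 complex converting PI(4,5)P2, product PI(3,4,5)P3 detected by displacing TAMRA-tagged PI(3,4,5)P3 from Grip1 PH domain, lower polarization means more product, room temperature.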 The note with it: for pKi: read-out: PI3Ka Ki; for PI3Ka Ki: Ki calculated from IC50, [ATP]=30 uM, Km=25 uM.
PI3-Kα, sequence (P42337 whole entry, the tested form may be a part): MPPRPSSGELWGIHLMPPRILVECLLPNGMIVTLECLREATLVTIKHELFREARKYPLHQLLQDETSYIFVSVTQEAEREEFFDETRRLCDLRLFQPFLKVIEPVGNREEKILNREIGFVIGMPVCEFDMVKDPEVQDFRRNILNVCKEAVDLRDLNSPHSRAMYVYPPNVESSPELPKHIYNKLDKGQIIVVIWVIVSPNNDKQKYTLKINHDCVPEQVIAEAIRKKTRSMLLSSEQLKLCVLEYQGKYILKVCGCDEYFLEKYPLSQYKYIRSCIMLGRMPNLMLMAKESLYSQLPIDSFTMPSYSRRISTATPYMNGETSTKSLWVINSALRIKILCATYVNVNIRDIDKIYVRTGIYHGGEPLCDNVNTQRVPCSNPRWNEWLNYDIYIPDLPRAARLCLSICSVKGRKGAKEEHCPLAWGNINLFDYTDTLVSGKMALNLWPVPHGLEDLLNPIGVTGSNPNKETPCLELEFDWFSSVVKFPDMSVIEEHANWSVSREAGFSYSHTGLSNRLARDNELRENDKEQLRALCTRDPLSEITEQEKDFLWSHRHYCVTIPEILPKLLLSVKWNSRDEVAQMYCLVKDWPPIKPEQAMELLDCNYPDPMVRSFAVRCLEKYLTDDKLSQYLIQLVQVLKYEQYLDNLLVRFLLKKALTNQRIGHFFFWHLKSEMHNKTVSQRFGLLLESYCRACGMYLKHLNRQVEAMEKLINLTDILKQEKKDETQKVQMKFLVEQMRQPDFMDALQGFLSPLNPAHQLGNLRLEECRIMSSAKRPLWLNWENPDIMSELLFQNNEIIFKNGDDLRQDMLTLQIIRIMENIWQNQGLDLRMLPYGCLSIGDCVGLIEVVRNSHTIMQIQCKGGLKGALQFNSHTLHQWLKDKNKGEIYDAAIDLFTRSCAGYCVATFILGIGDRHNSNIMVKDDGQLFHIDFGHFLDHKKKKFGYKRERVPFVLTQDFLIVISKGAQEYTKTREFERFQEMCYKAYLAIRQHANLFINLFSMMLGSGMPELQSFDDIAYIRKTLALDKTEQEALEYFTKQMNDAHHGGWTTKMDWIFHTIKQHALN
PI3-Kα, sequence (P26450 whole entry partner, the tested form may be a part): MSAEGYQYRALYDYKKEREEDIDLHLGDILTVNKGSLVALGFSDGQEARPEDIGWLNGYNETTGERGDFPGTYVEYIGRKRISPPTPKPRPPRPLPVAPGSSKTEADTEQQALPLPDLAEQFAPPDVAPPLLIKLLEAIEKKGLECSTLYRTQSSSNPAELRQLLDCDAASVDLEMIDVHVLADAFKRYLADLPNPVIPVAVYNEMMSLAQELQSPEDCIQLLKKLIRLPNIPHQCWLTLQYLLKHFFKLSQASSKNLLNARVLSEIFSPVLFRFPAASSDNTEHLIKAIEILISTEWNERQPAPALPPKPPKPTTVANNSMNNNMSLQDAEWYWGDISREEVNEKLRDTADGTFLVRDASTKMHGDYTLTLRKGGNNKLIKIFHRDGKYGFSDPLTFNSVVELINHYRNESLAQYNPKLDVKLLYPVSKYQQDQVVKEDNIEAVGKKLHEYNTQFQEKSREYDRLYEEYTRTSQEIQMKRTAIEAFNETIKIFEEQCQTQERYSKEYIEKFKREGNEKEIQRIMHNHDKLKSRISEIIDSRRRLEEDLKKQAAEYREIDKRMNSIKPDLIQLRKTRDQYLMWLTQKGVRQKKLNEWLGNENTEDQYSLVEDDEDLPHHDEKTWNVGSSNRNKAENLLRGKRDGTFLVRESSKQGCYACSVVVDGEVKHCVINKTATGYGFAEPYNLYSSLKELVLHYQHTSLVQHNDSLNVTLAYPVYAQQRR
In experiment [1] the test system is PI3-K (phosphorylation of AKT at serine 473) in BT20 cells. In words: PI3-Kα cellular assay (phospho-AKT Ser473 ELISA in BT20 cells).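 Further: lysates read by ELISA with TMB colour at 450 nm, cells given 0.5% DMSO vehicle serve as positive control and cell-free wells as negative control, duplicate wells per concentration.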 The conditions noted are these: Homo sapiens, BT-20, 1 h. On the technique in general: An ELISA detects its analyte on a solid surface through an enzyme-linked reagent.
Experiment [2] addresses T1, mTOR (Homo sapiens (Human), UniProt P42345). The experiment in a line: biochemical.
In experiment [3] the target is T1, mTOR.
[4] abbreviates: read-out: S473 pAKT 0.5% FBS IC50 (μM).
Setting [5] is: read-out: S473 pAKT 10% FBS IC50 (μM).

T1 sequence (P42345 2156-2469): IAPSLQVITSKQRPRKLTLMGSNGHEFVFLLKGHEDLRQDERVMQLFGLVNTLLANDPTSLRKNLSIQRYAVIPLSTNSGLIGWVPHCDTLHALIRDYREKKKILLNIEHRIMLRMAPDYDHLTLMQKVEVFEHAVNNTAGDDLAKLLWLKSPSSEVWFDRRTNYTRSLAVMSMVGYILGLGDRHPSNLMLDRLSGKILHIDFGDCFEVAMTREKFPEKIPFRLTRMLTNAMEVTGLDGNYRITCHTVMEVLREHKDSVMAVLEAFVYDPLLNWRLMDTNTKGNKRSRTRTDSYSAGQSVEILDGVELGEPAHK

For the compound `CC(C)(C#N)c1ccc(-n2c(=O)[nH]c3cnc4ccc(-c5cnc6ccccc6c5)nc4c32)cc1` [Compound 101, 2-methyl-2-[4-(2-oxo-8-quinolin-3-yl-2,3-dihydro-1H-imidazo[4,5-c]-1,5-naphthyridin-1-yl)phenyl]propanenitrile], the pKi – broadly, the negative decadic logarithm of the Ki, by convention in mol/L – at PI3-Kα is 8.36; on mTOR [2], 8.44. For the same compound, the IC50 – broadly, the concentration at which inhibition is half-maximal – in experiment [1] (setting [4]) worked out at 0.00647 µM.

As for `Cn1c(=O)n(-c2ccc(C(C)(C)C#N)cc2)c2c3nc(-c4cnc5ccccc5c4)ccc3ncc21` [Compound 102, 2-methyl-2-[4-(3-methyl-2-oxo-8-quinolin-3-yl-2,3-dihydro-1H-imidazo[4,5-c]-1,5-naphthyridin-1-yl)phenyl]propanenitrile], the pKi on PI3-Kα is 9.12; on mTOR [2], 8.52. For the same compound, the half-inhibitory concentration (IC50) in experiment [1] (setting [4]) came out at 0.00354 µM.

As to `O=C(OCc1ccccc1)N1CCC(n2c(=O)[nH]c3cnc4ccc(-c5cnc6ccccc6c5)nc4c32)CC1` [Compound 115, benzyl4-(2-oxo-8-quinolin-3-yl-2,3-dihydro-1H-imidazo[4,5-c][1,5]naphthyridin-1-yl)piperidine-1-carboxylate], the pKi is 8.11 on PI3-Kα and 7.67 on mTOR [2]. For the same compound, the IC50 in experiment [1] (setting [4]) was 0.0322 µM.

Consider `Cn1c(=O)n(C2CCN(C(=O)OCc3ccccc3)CC2)c2c3nc(-c4cnc5ccccc5c4)ccc3ncc21` [Compound 116, benzyl4-(3-methyl-2-oxo-8-quinolin-3-yl-2,3-dihydro-1H-imidazo[4,5-c][1,5]naphthyridin-1-yl)piperidine-1-carboxylate], for which the pKi at PI3-Kα is 8.54; at mTOR [2], 8.19. In experiment [1] (setting [4]), the IC50 came to 0.0134 µM.

In the case of `Cn1c(=O)n(C2CCNCC2)c2c3nc(-c4cnc5ccccc5c4)ccc3ncc21` [Compound 118, 3-methyl-1-piperidin-4-yl-8-quinolin-3-yl-1,3-dihydro-2H-imidazo[4,5-c][1,5]naphthyridin-2-one], the pKi at PI3-Kα is 8.68; at mTOR [2], 7.88.

For the compound `CC(=O)N1CCC(n2c(=O)n(C)c3cnc4ccc(-c5cnc6ccccc6c5)nc4c32)CC1` [Compound 120, 1-(1-acetylpiperidin-4-yl)-3-methyl-8-quinolin-3-yl-1,3-dihydro-2H-imidazo[4,5-c][1,5]naphthyridin-2-one], the pKi is 9.01 on PI3-Kα and 8.27 at mTOR [2]. The IC50 in experiment [1] (setting [4]) amounted to 0.00459 µM.

`Cn1c(=O)n([C@H]2CC[C@H](O)CC2)c2c3nc(-c4cnn(CCO)c4)ccc3ncc21` [Compound 164, 1-(trans-4-hydroxycyclohexyl)-8-[1-(2-hydroxyethyl)-1H-pyrazol-4-yl]-3-methyl-1,3-dihydro-2H-imidazo[4,5-c][1,5]naphthyridin-2-one]: the values for the pKi at PI3-Kα and at mTOR [2] were 7.79 and 7.85, respectively. For the same compound, the IC50 in experiment [1] (setting [5]) came to 0.448 µM.

For the compound `Cc1ccc(-c2ccc3ncc4c(c3n2)n(C2CCN(C(N)=O)CC2)c(=O)n4C)cn1` [Compound 167, 4-[3-methyl-8-(6-methylpyridin-3-yl)-2-oxo-2,3-dihydro-1H-imidazo[4,5-c][1,5]naphthyridin-1-yl]piperidine-1-carboxamide], the values for the pKi on PI3-Kα and on mTOR [2] were 8.71 and 8.89, respectively. Further, in experiment [1] (setting [5]), the IC50 is 0.112 µM.

For the compound `C[C@H](O)C(=O)N1CCC(n2c(=O)n(C)c3cnc4ccc(-c5ccnc6[nH]ncc56)nc4c32)CC1` [Compound 253, 1-{1-[(2S)-2-hydroxypropanoyl]piperidin-4-yl}-3-methyl-8-(1H-pyrazolo[3,4-b]pyridin-4-yl)-1,3-dihydro-2H-imidazo[4,5-c][1,5]naphthyridin-2-one], the “PI3Ka Ki” value on PI3-Kα is 1.04 nM. For the same compound, at mTOR [3], the pKi was 8.77. In addition, the IC50 in experiment [1] (setting [5]) is 0.218 µM.

As to `Cn1c(=O)n(C2CCN(C(=O)CO)CC2)c2c3nc(-c4cccc5[nH]ncc45)ccc3ncc21` [Compound 256, 1-(1-glycoloylpiperidin-4-yl)-8-(1H-indazol-4-yl)-3-methyl-1,3-dihydro-2H-imidazo[4,5-c][1,5]naphthyridin-2-one], the “PI3Ka Ki” value on PI3-Kα was 0.575 nM. In addition, the pKi on mTOR [3] was 8.71. Moreover, the IC50 in experiment [1] (setting [5]) came to 0.0604 µM.

Regarding `C[C@@H](O)C(=O)N1CCC(n2c(=O)n(C)c3cnc4ccc(-c5cnc6[nH]ncc6c5)nc4c32)CC1` [Compound 258, 1-{1-[(2R)-2-hydroxypropanoyl]piperidin-4-yl}-3-methyl-8-(1H-pyrazolo[3,4-b]pyridin-5-yl)-1,3-dihydro-2H-imidazo[4,5-c][1,5]naphthyridin-2-one], the “PI3Ka Ki” value on PI3-Kα was 0.11 nM. The negative logarithm of the Ki (pKi) on mTOR [3] is 9.62. Besides, the IC50 in experiment [1] (setting [5]) was found to be 0.0294 µM.

As to `COCC(=O)N1CCC(n2c(=O)n(C)c3cnc4ccc(-c5cnc6[nH]ncc6c5)nc4c32)CC1` [Compound 260, 1-[1-(methoxyacetyl)piperidin-4-yl]-3-methyl-8-(1H-pyrazolo[3,4-b]pyridin-5-yl)-1,3-dihydro-2H-imidazo[4,5-c][1,5]naphthyridin-2-one], at PI3-Kα, the “PI3Ka Ki” value was 0.167 nM. The compound further had a negative-log Ki (pKi) at mTOR [3] of 9.49. Also, the IC50 in experiment [1] (setting [5]) stood at 0.0153 µM.

With `Cn1c(=O)n(C2CCN(C(=O)C(C)(C)O)CC2)c2c3nc(-c4cnc5[nH]ncc5c4)ccc3ncc21` [Compound 261, 1-[1-(2-hydroxy-2-methylpropanoyl)piperidin-4-yl]-3-methyl-8-(1H-pyrazolo[3,4-b]pyridin-5-yl)-1,3-dihydro-2H-imidazo[4,5-c][1,5]naphthyridin-2-one], the “PI3Ka Ki” value at PI3-Kα is 0.114 nM. Further, the pKi on mTOR [3] was 9.18. Also, the 50% inhibitory concentration (IC50) in experiment [1] (setting [5]) amounted to 0.00991 µM.

Consider `Cn1c(=O)n(C2CCN(C(=O)CO)CC2)c2c3nc(-c4cnc5[nH]ncc5c4)ccc3ncc21` [Compound 262, 1-(1-glycoloylpiperidin-4-yl)-3-methyl-8-(1H-pyrazolo[3,4-b]pyridin-5-yl)-1,3-dihydro-2H-imidazo[4,5-c][1,5]naphthyridin-2-one], for which the “PI3Ka Ki” value on PI3-Kα is 0.32 nM. On mTOR [3], the pKi was 8.39. Further, the IC50 in experiment [1] (setting [5]) worked out at 0.0594 µM.

Take `CN1CCC(n2c(=O)n(C)c3cnc4ccc(-c5cnc6[nH]ncc6c5)nc4c32)CC1` [Compound 263, 3-methyl-1-(1-methylpiperidin-4-yl)-8-(1H-pyrazolo[3,4-b]pyridin-5-yl)-1,3-dihydro-2H-imidazo[4,5-c][1,5]naphthyridin-2-one]: on PI3-Kα, the “PI3Ka Ki” value is 0.282 nM. On mTOR [3], this compound gave a pKi of 8.25. In addition, the IC50 in experiment [1] (setting [5]) stood at 0.0218 µM.

Consider `CCNC(=O)Nc1ccc(-c2ccc3ncc4c(c3n2)n(C2CCN(C(=O)OC(C)(C)C)CC2)c(=O)n4C)cc1` [Compound 265, tert-butyl 4-(8-{4-[(ethylcarbamoyl)amino]phenyl}-3-methyl-2-oxo-2,3-dihydro-1H-imidazo[4,5-c][1,5]naphthyridin-1-yl)piperidine-1-carboxylate], for which, at PI3-Kα, the “PI3Ka Ki” value was 5.02 nM. Further, the pKi on mTOR [3] was 7.84. In experiment [1] (setting [5]), the IC50 amounted to 0.0399 µM.

Regarding `COc1ccc(-c2ccc3ncc4c(c3n2)n(CCN2CCNCC2)c(=O)n4C)cn1` [Compound 266, 8-(6-methoxypyridin-3-yl)-3-methyl-1-(2-piperazin-1-ylethyl)-1,3-dihydro-2H-imidazo[4,5-c][1,5]naphthyridin-2-one], the “PI3Ka Ki” value on PI3-Kα was 7.8 nM. Moreover, on mTOR [3], the pKi was 6.56. For the same compound, in experiment [1] (setting [5]), the IC50 was 0.344 µM.

In the case of `Cn1c(=O)n([C@H]2CC[C@H](O)CC2)c2c3nc(-c4ccc5[nH]ncc5c4)ccc3ncc21` [Compound 267, 1-(trans-4-hydroxycyclohexyl)-8-(1H-indazol-5-yl)-3-methyl-1,3-dihydro-2H-imidazo[4,5-c][1,5]naphthyridin-2-one], the “PI3Ka Ki” value on PI3-Kα was 0.145 nM. Further, on mTOR [3], the negative logarithm of the Ki (pKi) is 9.44. In addition, the IC50 in experiment [1] (setting [5]) came to 0.0205 µM.

Take `COCCn1c(=O)n(C)c2cnc3ccc(-c4ccc(OC)nc4)nc3c21` [Compound 270, 1-(2-methoxyethyl)-8-(6-methoxypyridin-3-yl)-3-methyl-1,3-dihydro-2H-imidazo[4,5-c][1,5]naphthyridin-2-one]: the “PI3Ka Ki” value at PI3-Kα is 13.5 nM. The compound also showed a pKi at mTOR [3] of 8.15. Besides, the 50% inhibitory concentration (IC50) in experiment [1] (setting [5]) was 0.207 µM.

On to `COc1ccc(-c2ccc3ncc4c(c3n2)n(C2CCN(C(C)=O)CC2)c(=O)n4C)cc1` [Compound 274, 1-(1-acetylpiperidin-4-yl)-8-(4-methoxyphenyl)-3-methyl-1,3-dihydro-2H-imidazo[4,5-c][1,5]naphthyridin-2-one], for which the “PI3Ka Ki” value at PI3-Kα is 7.71 nM. The same compound gave a pKi at mTOR [3] of 7.84. Besides, the IC50 in experiment [1] (setting [5]) worked out at 0.0113 µM.

Turning to `COc1cccc(-c2ccc3ncc4c(c3n2)n(C2CCN(C(=O)[C@H](C)O)CC2)c(=O)n4C)c1` [Compound 275, 1-{1-[(2S)-2-hydroxypropanoyl]piperidin-4-yl}-8-(3-methoxyphenyl)-3-methyl-1,3-dihydro-2H-imidazo[4,5-c][1,5]naphthyridin-2-one], the “PI3Ka Ki” value on PI3-Kα is 2.01 nM. On mTOR [3], this compound showed a negative-log Ki (pKi) of 8.07. In experiment [1] (setting [5]), the 50% inhibitory concentration (IC50) amounted to 0.0344 µM.

In the case of `COc1cccc(-c2ccc3ncc4c(c3n2)n(C2CCN(C(=O)CO)CC2)c(=O)n4C)c1` [Compound 276, 1-(1-glycoloylpiperidin-4-yl)-8-(3-methoxyphenyl)-3-methyl-1,3-dihydro-2H-imidazo[4,5-c][1,5]naphthyridin-2-one], the “PI3Ka Ki” value at PI3-Kα is 2.22 nM. Besides, the pKi at mTOR [3] was 7.99. Moreover, in experiment [1] (setting [5]), the IC50 came to 0.0304 µM.

`COc1cccc(-c2ccc3ncc4c(c3n2)n(C2CCN(C(C)=O)CC2)c(=O)n4C)c1` [Compound 277, 1-(1-acetylpiperidin-4-yl)-8-(3-methoxyphenyl)-3-methyl-1,3-dihydro-2H-imidazo[4,5-c][1,5]naphthyridin-2-one]: on PI3-Kα, the “PI3Ka Ki” value is 3.04 nM. In addition, the pKi at mTOR [3] is 7.99. For the same compound, in experiment [1] (setting [5]), the IC50 turned out to be 0.0577 µM.

The values are drawn from US8791131B2, “Imidazo[1,5]naphthyridine compounds, their pharmaceutical use and compositions” (Pfizer Inc., priority 2008, dated 2014).
